Source: PMC8558179, “The C-terminal peptide of CCL21 drastically augments CCL21 activity through the dendritic cell lymph node homing receptor CCR7 by interaction with the receptor N-terminus” (Cellular and Molecular Life Sciences: CMLS, 2021)

B1: CCL21: full-length chemokine (residues 1–111), CCR7 ligand, from R&D Systems (protein, UniProt O00585 24-134, looked up)
C-C motif chemokine 21: SDGGAQDCCLKYSQRKIPAKVVRSYRKQEPSLGCSIPAILFLPRKRSQAELCADPKELWVQQLMQHLDKTPSPQKPAQGCRKDRGASKTGKKGKGSKGCKRTERSQTPKGP

Key:
[1] = tested on: human moDCs naturally expressing CCR7; assay: 3D chemotaxis, time-lapse recording of human moDCs in Collagen I (chemotactic index); assay type: cell-based
Procedure: Buffy coats were obtained from Rigshospitalet Copenhagen, as anonymous material, with written informed consent from the donors. The local ethics committee at Faculty of Health and Medical Sciences at the University of Copenhagen (Research Ethics Committee for Sund and Science, University of Copenhagen) found the project exempt from approval. DCs were prepared from human peripheral blood mononuclear cells (PBMC) isolated from buffy coats by centrifugation on a Lymphoprep gradient as previously described. Briefly, monocytes were isolated by plastic adherence of PBMC. Adhered monocytes were subsequently cultured and differentiated into immature DCs by incubation with IL-4 (250 U/ml) and GM-CSF (1000 U/ml) for 6 days, followed by activation into mature DCs by incubation with IL-6 (1000 U/ml), IL-1β (1000 U/ml), TNF-α (1000 U/ml), and PGE2 (1 µg/ml) for an additional 2 days in the same medium.
Human DCs were cultured in X-vivo 15 medium with 2% human AB serum and glutamine. CHO-K1 pgsB-618 ATCC® CRL2241™ [24] and CHO-K1 cells were grown in RPMI with 10% FBS and Penicillin/Streptomycin. HS^−/− (CHO EXTL 2/3 −/−), CS^−/− (CSGALNACT 1/2^−/− CHSY1^−/−), 5xKO (GalNAc-T1, 2, 4, 7 and 10 −/−) and WT CHO suspension cells were grown in suspension in 1:1 of EX-Cell CD CHO fusion media and Balanced CD CHO growth A medium supplemented with 2% glutamine and Penicillin/Streptomycin. Cells were kept in a humidified incubator at 37 °C, 5% CO2.
Chemotaxis assays were conducted as previously described. Briefly, mature human moDCs were left to acclimatize in medium for 30 min at room temperature (RT) upon defrosting, before assay start. DCs were seeded in Bovine Collagen I mixture prepared by mixing 10 µl Na2HCO3 (7.5%), 20 µl MEM (10×), 150 µl PureCol and 90 µl DCs dissolved in X-vivo 15 medium (2 × 10^6 cells/ml). After incubation for 45 min in a humidified incubator at 37 °C (5% CO2), the source and sink reservoirs were filled according to the manufacturer’s instructions and chemotaxis was tracked in a time-lapse microscope with a humidified temperature controlled stage incubator for 12 h at a 2 min interval. Cell migration (approximately 20–40 cells per viewing field) was tracked using a commercial tracking program (Autozell) and subsequently analyzed to get a population-based chemotactic index (CI) value (MATLAB). CI is a measure of net translocation distance to the source relative to total distance traveled and was thus calculated as the ratio of the distance traveled in the direction of the gradient over the total distance traveled and therefore is a conservative measure of the directedness of cell migration.

CCR6 = assay: Gαi signaling, BRET cAMP assay at CCR6 in CHO cells; assay type: cell-based; conditions: CCL20 + 10 µM TP71-111, CHO cells, n = 3
Procedure: For cAMP assays, adherent CHO cells were transfected using lipofectamine while suspension cells were transfected using the FectoPro method. Cells were seeded in a 6-well plate, either 500,000 (adherent cells) or 200,000 (suspension cells) cells/well. The next day the cells were transiently transfected with vectors encoding the human CCR7 and CAMYEL sensor (cAMP sensor using YFP-Epac-RLuc) in a 1:5 ratio using lipofectamine (6 µl/well) or FectoPro (4 µl/well). Lipofectamine transfections were terminated by changing to 2 ml fresh cultivation medium after 5 h, while Fectopro transfection was terminated after 3 h by adding 2.5 ml fresh cultivation medium and 2 µl FectoPro Boost reagent per well. The cells were incubated under standard cultivation conditions overnight. […] Emission signal from Rluc and eYFP was measured using the Envision machine at 530 and 480 nm and the BRET signal determined as the ratio between (eYFP/Rluc).
Supplementary file 18_2021_3930_MOESM2_ESM.png: Supplementary file2 C21TP also boosts signaling of the DC expressed chemokine receptor CCR6. […] B) CCL20-induced CCR6 Gαi –signaling in CHO cells quantified using the BRET Based cAMP assay. […] Statistical significance was calculated using two-way ANOVA with Sidek’s correction for multiple test. *P<0.05, **P <0.01, ***P <0.001, ns, not significant (PNG 878 KB)

CCR7 (primary T cells) = conditions: heterologous competition binding, apparent affinity; cited from earlier work
Excerpt: In the absence of peptide, CCL19 and CCL21 contact CCR7 in different manners. The interaction of CCL21 depends on residues in the top of TM-3, -4 and -5 that are not important for CCL19 interaction with CCR7. The binding of these two chemokines induce different structural changes in CCR7 to disrupt old and create new hydrogen bonds. CCL21 binding to CCR7 is believed to involve movements within the majority of helical domains (TM2, -3, -4, -5, -6, and -7), whereas the changes induced by CCL19 are restricted to regions of TM3, -5, and -6 [37]. The conformational changes in CCR7 ind ...

CCL21 = conditions: cited from earlier work
Excerpt: Another phenomenon that could explain the C21TP boosting ability would be that the peptide was able to relieve the auto-inhibition of CCL21. The peptide could potentially occupy the site on CCL21 normally contacted by the attached basic C-terminus during the auto-inhibition process, in this way preventing the formation of the locked CCL21 version. In this way the peptide could participate in unfolding of CCL21, similar to the process that is predicted to take place in the presence of polysialic acid residues. The boosting effect of C21TP on CCL19 could also be based on a direct chemokin ...

Row | Molecule | increase of CCL19-induced DC chemotaxis ([1]; 10 nM CCL19 + 10 µM TP71-111, human moDCs, n = 3–6) | fold boost of CCL21-induced DC chemotaxis (immune cell recruiting activity) ([1]; 10 nM CCL21, highest C21TP concentration 10 µM (0.1–10 µM tested), human moDCs, 12 h tracking, 37 °C, n = 3–11) | boosting of CCL21-induced DC chemotaxis ([1]; 10 nM CCL21, peptide 10 µM (0.1–10 µM in the dose series), human moDCs) | DC chemotaxis by C21TP alone ([1]; C21TP without chemokine, data not shown) | boosting of CCL20-induced signaling at CCR6 (CCR6) | boosting of CCL20-induced signaling at CCR6 (CCR6; listed as C21TP) | fold lower binding affinity of CCL21 in primary T cells (CCR7 (primary T cells)) | chemotaxis towards chemokine alone ([1]; 10 nM chemokine, no peptide, human moDCs) | CCL21 self-association (CCL21)
1 | TP71-111: free CCL21 C-terminal peptide, residues 71–111 (41 amino acids, positively charged) (PSPQKPAQGCRKDRGASKTGKKGKGSKGCKRTERSQTPKGP; UniProt O00585 94-134, looked up, fragment) | significantly increased in the presence of 10 µM C21TP (TP71-111), by approximately twofold | up to 25 fold | boosted significantly by the C21TP in a dose-dependent manner | did not induce DC chemotaxis | very similar to the boosting observed with CCL19 acting at CCR7 | also boosts CCL20 signaling via CCR6 |  |  | 
2 | B1 |  |  |  |  |  |  | sixfold lower binding affinity | very weak chemotactic cue | weak and only detectable at mM concentrations
